Experimental findings from patent US12319672B2, “Alpha-D-galactopyranoside derivatives” (Idorsia Pharmaceuticals Ltd, priority 2019, dated 2025) are described below.

Structures are written as SMILES.

The target in one experiment is human Gal-1 (hGal-1). The experiment can be described thus: Competitive binding assay: binding of biotinylated hGal-1 to microplate-adsorbed asialofetuin (ASF). To be noted: Activities on hGal-1; mean values of several measurements. The method in brief:
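Spectrophotometric readout (streptavidin-peroxidase, ABTS) of biotinylated galectin retained on ASF-coated wells. Biotinylated hGal-1 or hGal-3, 300-1000 ng/mL, co-incubated with test compound 3 h at 4° C, then washed. Mean IC50 from repeat runs.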

The target in a further experiment is human Gal-3 (hGal-3) (Homo sapiens (Human), UniProt P17931). In words: Competitive binding assay: binding of biotinylated hGal-3 to microplate-adsorbed asialofetuin (ASF). To be noted: Activity on hGal-3; mean values of several measurements. The method, boiled down: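 Compounds in DMSO dilution series competed with 300-1000 ng/mL biotinylated hGal-3 for asialofetuin adsorbed on the plate (3 h, 4° C). Streptavidin-peroxidase at 80 ng/mL (1 h, 4° C) with ABTS gave a spectrophotometric read-out, and IC50 was reported as the mean of repeat runs.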
Sequence of human Gal-3 (hGal-3) (P17931 whole entry): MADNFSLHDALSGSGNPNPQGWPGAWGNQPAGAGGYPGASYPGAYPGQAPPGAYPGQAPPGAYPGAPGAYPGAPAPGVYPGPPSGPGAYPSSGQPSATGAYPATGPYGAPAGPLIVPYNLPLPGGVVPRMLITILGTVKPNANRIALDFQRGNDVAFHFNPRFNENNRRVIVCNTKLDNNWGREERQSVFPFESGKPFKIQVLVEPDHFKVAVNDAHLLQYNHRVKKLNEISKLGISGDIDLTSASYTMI

Sequence of human Gal-1 (hGal-1) (P09382 2-135 limits assumed): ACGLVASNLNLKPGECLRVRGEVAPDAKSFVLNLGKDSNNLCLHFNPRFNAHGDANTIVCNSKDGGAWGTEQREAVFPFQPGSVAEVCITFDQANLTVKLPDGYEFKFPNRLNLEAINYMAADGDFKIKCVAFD

With `CO[C@@H]1[C@@H](n2cc(-c3cc(F)c(F)c(F)c3)nn2)[C@@H](O)[C@@H](CO)O[C@@H]1Cc1cc(C2(CC#N)CC2)no1` [Ex 1.313], the IC50 at human Gal-1 (hGal-1) stood at 2940 nM; on human Gal-3 (hGal-3), 130 nM.
For `COCC(C)(C)c1cc(C[C@H]2O[C@H](CO)[C@H](O)[C@H](n3cc(-c4cc(F)c(F)c(F)c4)nn3)[C@H]2OC)on1` [Ex 1.314] the same measures were 1380 nM and 130 nM.
As to `CO[C@@H]1[C@@H](n2cc(-c3cc(F)c(F)c(F)c3)nn2)[C@@H](O)[C@@H](CO)O[C@@H]1Cc1cc(C(C)(C)CNC(=O)OC(C)(C)C)no1` [Ex 1.315], the IC50 on human Gal-1 (hGal-1) is 2210 nM; at human Gal-3 (hGal-3), 270 nM.
The matching figures for `CO[C@@H]1[C@@H](n2cc(-c3cc(F)c(F)c(F)c3)nn2)[C@@H](O)[C@@H](CO)O[C@@H]1Cc1cc(C(C)(C)CN)no1` [Ex 1.316]: 2200 nM and 190 nM.
The matching figures for `CO[C@@H]1[C@@H](n2cc(-c3ccc(C)c(F)c3F)nn2)[C@@H](O)[C@@H](CO)O[C@@H]1Cc1cc(C(O)(c2ccccn2)C2CC2)on1` (some centres unmarked) [Ex 1.317]: 9690 nM and 310 nM.
The matching figures for `CO[C@@H]1[C@@H](n2cc(-c3ccc(C)c(F)c3F)nn2)[C@@H](O)[C@@H](CO)O[C@@H]1Cc1cc(C(C)(O)c2ccccc2)on1` (some centres unmarked) [Ex 1.318]: 8870 nM and 160 nM.
For the molecule `CO[C@@H]1[C@@H](n2cc(-c3ccc(C)c(F)c3F)nn2)[C@@H](O)[C@@H](CO)O[C@@H]1Cc1cc(C2(O)CC2)on1` [Ex 1.319], the IC50 was determined as 7160 nM at human Gal-1 (hGal-1) and 140 nM on human Gal-3 (hGal-3).
In the case of `CO[C@@H]1[C@@H](n2cc(-c3ccc(C)c(F)c3F)nn2)[C@@H](O)[C@@H](CO)O[C@@H]1Cc1cc(C2(C)COC2)on1` [Ex 1.320], the IC50 at human Gal-1 (hGal-1) was 2620 nM; on human Gal-3 (hGal-3), 75 nM.
The matching figures for `CO[C@@H]1[C@@H](n2cc(-c3ccc(C)c(F)c3F)nn2)[C@@H](O)[C@@H](CO)O[C@@H]1Cc1cc(C(C)(O)c2ccccc2F)on1` (some centres unmarked) [Ex 1.321]: 9170 nM and 400 nM.
Regarding `CO[C@@H]1[C@@H](n2cc(-c3ccc(C)c(F)c3F)nn2)[C@@H](O)[C@@H](CO)O[C@@H]1Cc1cc(C2(Oc3cncc(Br)c3)COC2)on1` [Ex 1.322], the values for the IC50 on human Gal-1 (hGal-1) and at human Gal-3 (hGal-3) were above 100000 nM and 310 nM, respectively.
For `CCC(O)(CC)c1cc(C[C@H]2O[C@H](CO)[C@H](O)[C@H](n3cc(-c4ccc(C)c(F)c4F)nn3)[C@H]2OC)no1` [Ex 1.323] the same measures were 5080 nM and 620 nM.
With `CO[C@@H]1[C@@H](n2cc(-c3ccc(C)c(F)c3F)nn2)[C@@H](O)[C@@H](CO)O[C@@H]1Cc1cc(C2(CO)CC2)on1` [Ex 1.324], the concentration for half-maximal inhibition (IC50) was 3570 nM at human Gal-1 (hGal-1) and 140 nM at human Gal-3 (hGal-3).
The matching figures for `CCOC(=O)N1CCC(C)(c2cc(C[C@H]3O[C@H](CO)[C@H](O)[C@H](n4cc(-c5ccc(C)c(F)c5F)nn4)[C@H]3OC)on2)CC1` [Ex 1.325]: 600 nM and 17 nM.
The matching figures for `CO[C@@H]1[C@@H](n2cc(-c3ccc(C)c(F)c3F)nn2)[C@@H](O)[C@@H](CO)O[C@@H]1Cc1cc(C2(O)CCCC2)no1` [Ex 1.326]: 2870 nM and 57 nM.
Consider `CCOC(C)(C)c1cc(C[C@H]2O[C@H](CO)[C@H](O)[C@H](n3cc(-c4ccc(C)c(F)c4F)nn3)[C@H]2OC)on1` [Ex 1.327], for which the IC50 on human Gal-1 (hGal-1) was found to be 4170 nM; on human Gal-3 (hGal-3), 76 nM.
On to `COc1ccc(-c2cn([C@H]3[C@@H](O)[C@@H](CO)O[C@H](CC4CC(C5CCN(C(=O)OC(C)(C)C)CC5)=NO4)[C@@H]3OC)nn2)c(F)c1F` (some centres unmarked) [Ex 1.328], for which the IC50 was 960 nM at human Gal-1 (hGal-1) and 77 nM on human Gal-3 (hGal-3).
The matching figures for `CO[C@@H]1[C@@H](n2cc(-c3cccc(F)c3F)nn2)[C@@H](O)[C@@H](CO)O[C@@H]1CC1CC(C2CCN(C(=O)OC(C)(C)C)CC2)=NO1` (some centres unmarked) [Ex 1.329]: 440 nM and 69 nM.
In the case of `COCC(C)(C)c1cc(C[C@H]2O[C@H](CO)[C@H](O)[C@H](n3cc(-c4ccc(C)c(F)c4F)nn3)[C@H]2OC)on1` [Ex 1.330], the IC50 on human Gal-1 (hGal-1) worked out at 4360 nM; on human Gal-3 (hGal-3) it was 61 nM.
For `CO[C@@H]1[C@@H](n2cc(-c3ccc(C)c(F)c3F)nn2)[C@@H](O)[C@@H](CO)O[C@@H]1Cc1cc(C(C)(C)CNC(=O)OC(C)(C)C)no1` [Ex 1.331] the same measures were 1990 nM and 58 nM.
In the case of `CO[C@@H]1[C@@H](n2cc(-c3ccc(C)c(F)c3F)nn2)[C@@H](O)[C@@H](CO)O[C@@H]1Cc1cc(C2(CC#N)CC2)no1` [Ex 1.332], the figures for the IC50 on human Gal-1 (hGal-1) and on human Gal-3 (hGal-3) were 980 nM and 43 nM, respectively.
For `Cc1ccc(-c2cn([C@H]3[C@@H](O)[C@@H](CO)O[C@H](Cc4cc(C5(C)CC5)no4)[C@@H]3O)nn2)c(F)c1F` [Ex 1.333] the same measures were 6990 nM and 10 nM.
The matching figures for `Cc1ccc(-c2cn([C@H]3[C@@H](O)[C@@H](CO)O[C@H](Cc4cc(C(C)(C)CO)no4)[C@@H]3O)nn2)c(F)c1F` [Ex 1.334]: 3310 nM and 24 nM.
As to `Cc1ccc(-c2cn([C@H]3[C@@H](O)[C@@H](CO)O[C@H](Cc4cc(C5(C)COC5)no4)[C@@H]3O)nn2)c(F)c1F` [Ex 1.335], the IC50 worked out at 3780 nM on human Gal-1 (hGal-1) and 26 nM on human Gal-3 (hGal-3).
Turning to `CO[C@@H]1[C@@H](n2cc(-c3ccc(C)c(F)c3F)nn2)[C@@H](O)[C@@H](CO)O[C@@H]1Cc1cc(C(C)(C)CN)no1` [Ex 1.336], the IC50 turned out to be 1880 nM at human Gal-1 (hGal-1) and 23 nM on human Gal-3 (hGal-3).
On to `CO[C@@H]1[C@@H](n2cc(-c3cc(F)c(F)c(F)c3)nn2)[C@@H](O)[C@@H](CO)O[C@@H]1Cc1cc(C2CCNC(=O)CC2)no1` (some centres unmarked) [Ex 1.337], for which the concentration for half-maximal inhibition (IC50) at human Gal-1 (hGal-1) worked out at 420 nM; on human Gal-3 (hGal-3), 55 nM.
As to `CO[C@@H]1[C@@H](n2cc(-c3ccc(C#N)c(F)c3F)nn2)[C@@H](O)[C@@H](CO)O[C@@H]1Cc1cc(C(C)(C)C)no1` [Ex 1.338], the figures for the concentration for half-maximal inhibition (IC50) on human Gal-1 (hGal-1) and at human Gal-3 (hGal-3) were 1980 nM and 150 nM, respectively.
Consider `CO[C@@H]1[C@@H](n2cc(-c3ccc(C)c(F)c3F)nn2)[C@@H](O)[C@@H](CO)O[C@@H]1Cc1cc(C(C)(O)c2ccccc2)on1` (some centres unmarked) [Ex 1.339], for which the figures for the IC50 at human Gal-1 (hGal-1) and at human Gal-3 (hGal-3) were 10000 nM and 280 nM, respectively.
`CO[C@@H]1[C@@H](n2cc(-c3ccc(C)c(F)c3F)nn2)[C@@H](O)[C@@H](CO)O[C@@H]1Cc1cc(C(C)(O)c2ccccc2)on1` (some centres unmarked) [Ex 1.340]: the concentration for half-maximal inhibition (IC50) at human Gal-1 (hGal-1) amounted to 10400 nM; at human Gal-3 (hGal-3) it was 330 nM.
In the case of `CO[C@@H]1[C@@H](n2cc(-c3ccc(C)c(F)c3F)nn2)[C@@H](O)[C@@H](CO)O[C@@H]1Cc1cc(C(C)c2ccccc2)no1` (some centres unmarked) [Ex 1.342], the values for the concentration for half-maximal inhibition (IC50) on human Gal-1 (hGal-1) and on human Gal-3 (hGal-3) were 33000 nM and 550 nM, respectively.
The matching figures for `CO[C@@H]1[C@@H](n2cc(-c3ccc(C)c(F)c3F)nn2)[C@@H](O)[C@@H](CO)O[C@@H]1Cc1cc([C@@H]2CC[C@H]2O)on1` [Ex 1.343]: 9190 nM and 93 nM.
For `CC(=O)O[C@@H]1[C@@H](n2cc(-c3ccc(C)c(F)c3F)nn2)[C@@H](O)[C@@H](CO)O[C@@H]1Cc1cc([C@@H]2CCC[C@H]2O)on1` [Ex 1.344] the same measures were 17000 nM and 40 nM.
The matching figures for `CO[C@@H]1[C@@H](n2cc(-c3ccc(C)c(F)c3F)nn2)[C@@H](O)[C@@H](CO)O[C@@H]1Cc1cc(C2CCC(=O)N(C)CC2)no1` (some centres unmarked) [Ex 1.345]: 720 nM and 44 nM.
On to `CO[C@@H]1[C@@H](n2cc(-c3ccc(C)c(F)c3F)nn2)[C@@H](O)[C@@H](CO)O[C@@H]1Cc1cc(C2CCC2O)on1` (some centres unmarked) [Ex 1.346], for which the IC50 at human Gal-1 (hGal-1) came to 11700 nM; at human Gal-3 (hGal-3), 100 nM.
The matching figures for `CO[C@@H]1[C@@H](n2cc(-c3ccc(C)c(F)c3F)nn2)[C@@H](O)[C@@H](CO)O[C@@H]1Cc1cc(C2CCC2O)on1` (some centres unmarked) [Ex 1.347]: 8210 nM and 110 nM.
For the molecule `CO[C@@H]1[C@@H](n2cc(-c3ccc(C)c(F)c3F)nn2)[C@@H](O)[C@@H](CO)O[C@@H]1Cc1cc(C2CCNC(=O)CC2)no1` (some centres unmarked) [Ex 1.348], the IC50 amounted to 250 nM on human Gal-1 (hGal-1) and 68 nM at human Gal-3 (hGal-3).
For `CO[C@@H]1[C@@H](n2cc(-c3ccc(C)c(F)c3F)nn2)[C@@H](O)[C@@H](CO)O[C@@H]1Cc1cc([C@H]2C[C@H]2O)on1` [Ex 1.349] the same measures were 7020 nM and 180 nM.
For `CO[C@@H]1[C@@H](n2cc(-c3ccc(C)c(F)c3F)nn2)[C@@H](O)[C@@H](CO)O[C@@H]1Cc1cc([C@@H]2C[C@H]2O)on1` [Ex 1.350] the same measures were 6780 nM and 270 nM.
The matching figures for `CO[C@@H]1[C@@H](n2cc(-c3cccc(F)c3F)nn2)[C@@H](O)[C@@H](CO)O[C@@H]1Cc1cc(C(C)(C)C)on1` [Ex 1.351]: 1050 nM and 180 nM.
Regarding `COc1ccc(-c2cn([C@H]3[C@@H](O)[C@@H](CO)O[C@H](Cc4cc(C(C)(C)C)on4)[C@@H]3OC)nn2)c(F)c1F` [Ex 1.352], the IC50 at human Gal-1 (hGal-1) was determined as 1170 nM; at human Gal-3 (hGal-3), 100 nM.
`COc1ccc(-c2cc(C[C@H]3O[C@H](CO)[C@H](O)[C@H](n4cc(-c5cc(F)c(F)c(F)c5)nn4)[C@H]3O)on2)cc1` [Example 2.01, (2R,3R,4R,5R,6R)-2-(hydroxymethyl)-6-((3-(4-methoxyphenyl)isoxazol-5-yl)methyl)-4-(4-(3,4,5-trifluorophenyl)-1H-1,2,3-triazol-1-yl)tetrahydro-2H-pyran-3,5-diol]: the IC50 is 8360 nM on human Gal-1 (hGal-1) and 840 nM on human Gal-3 (hGal-3).

A word on the IC50: it is the concentration at which inhibition is half-maximal. The low end stands for inhibition by little substance, the high end for a need for much substance.
